Source: patent US20090082470A1, “STAT3 INHIBITING COMPOSITIONS AND METHODS” (priority 2007, published 2009)

Tests used:
[1] = tested on: DU 145 prostate cancer cell line; assay: Anti-proliferative activity, MTS assay, DU 145; format: cell-based; settings: Homo sapiens, MTS assay, 2,000 cells/well, means of 2 experiments in triplicate
From the text: (§1) MCF-7 breast cancer cells, a cell line with no constitutive activation of STAT3, were used as negative control. […] In addition, the anti-proliferative activities are directly proportional to the level of constitutively active STAT3 expression (Table 1).

[2] = tested on: PC3 prostate cancer cell line; assay: Anti-proliferative activity, MTS assay, PC3; format: cell-based; settings: MTS assay, 2,000 cells/well, means of 2 experiments in triplicate
From the text: as §1

[3] = tested on: LNCaP prostate cancer cell line; assay: Anti-proliferative activity, MTS assay, LNCaP; format: cell-based; settings: Homo sapiens, MTS assay, 2,000 cells/well, means of 2 experiments in triplicate
From the text: as §1

[4] = tested on: MCF-7 breast cancer cell line; assay: Anti-proliferative activity, MTS assay, MCF-7; format: cell-based
From the text: as §1

STAT3 [5] = assay: STAT3-dependent luciferase reporter (pLucTKS3) in Caov-3 cells; format: cell-based; settings: 20 μM, 48h
From the text: (§2) To screen the potential inhibitors that inhibit STAT3 's biological activity, we established Caov-3 cancer cell line that constitutively expresses active STAT3 with a stably integrated STAT3-dependent luciferase reporter construct, pLucTKS3. This construct contains multimerized STAT3 binding sites and its activation specifically depends on STAT3. We examined the effect of eight theoretical STAT3 inhibitors to inhibit STAT3-mediated production of luciferase.
(§3) According to embodiments illustrated by FIG. 3B, the clones stably transfected with pLucTKS3 STAT3-dependent luciferase reporter or SV40 luciferase reporter were treated with 20 μM of the STAT3 inhibitor for 48h and luciferase activity was measured.

SV40 promoter = assay: SV40 luciferase reporter (STAT3-independent); format: cell-based; settings: 20 μM, 48h
From the text: as §2, §3

cyclin D1 and Bcl-XL = assay: Immunoblot of STAT3-regulated genes; format: cell-based; settings: 20 μM and 30 μM
STAT3 [6] = assay: Electrophoretic mobility shift assay, STAT3 DNA binding; format: biochemical; settings: 30 μM, 30 min, MDA-MB-435s cell nuclear extract
From the text: (§4) The reaction mixtures were resolved on 8% polyacylamide gel and visualized with autoradiography.

STAT1 = target: T1, STAT1 (Homo sapiens, UniProt P42224); assay: Electrophoretic mobility shift assay, STAT1 DNA binding; format: biochemical; settings: 30 μM, MDA-MB-435s cell nuclear extract
T1 construct: endogenous in cells; host or cells: MDA-MB-435s nuclear extract
T1 sequence (P42224 1-750): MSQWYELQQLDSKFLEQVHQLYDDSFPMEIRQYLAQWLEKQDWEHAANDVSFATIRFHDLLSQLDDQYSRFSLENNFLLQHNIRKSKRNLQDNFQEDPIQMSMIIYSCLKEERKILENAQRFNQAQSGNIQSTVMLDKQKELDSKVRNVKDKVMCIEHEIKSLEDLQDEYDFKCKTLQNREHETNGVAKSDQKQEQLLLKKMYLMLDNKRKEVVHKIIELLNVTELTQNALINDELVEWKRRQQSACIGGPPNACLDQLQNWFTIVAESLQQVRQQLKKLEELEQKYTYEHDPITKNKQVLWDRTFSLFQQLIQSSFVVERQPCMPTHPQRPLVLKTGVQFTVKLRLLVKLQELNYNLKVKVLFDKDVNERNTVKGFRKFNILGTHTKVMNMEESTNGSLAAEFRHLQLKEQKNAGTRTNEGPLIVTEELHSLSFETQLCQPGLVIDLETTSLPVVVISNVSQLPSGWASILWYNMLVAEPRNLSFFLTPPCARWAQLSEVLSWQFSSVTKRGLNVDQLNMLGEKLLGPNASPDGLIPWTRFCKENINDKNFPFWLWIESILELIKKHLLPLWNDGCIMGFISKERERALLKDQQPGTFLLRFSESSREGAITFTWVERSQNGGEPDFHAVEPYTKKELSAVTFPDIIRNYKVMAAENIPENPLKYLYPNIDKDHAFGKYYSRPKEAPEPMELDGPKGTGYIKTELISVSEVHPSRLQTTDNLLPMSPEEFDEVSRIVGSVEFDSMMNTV
From the text: as §4

STAT5 = assay: Electrophoretic mobility shift assay, STAT5 DNA binding; format: biochemical; settings: 30 μM, MDA-MB-435s cell nuclear extract
From the text: as §4

STAT3 [7] = assay: STAT3 dimerization, co-immunoprecipitation of STAT3-FLAG and STAT3-HA; format: cell-based; settings: MDA-MB-435s cells, 20 μM, 24h
Description: MDA-MB-435s cells were co-transfected with pCMV-STAT3-FLAG and pCMV-STAT3-HA plasmid constructs and immunoblot analyses were performed with anti-FLAG, anti-HA, and anti-STAT3, the results of which are shown in FIG. 5A. The cell lysates were then subjected to immunoprecipitation with an anti-FLAG or anti-HA antibody and immunoblot analyses were performed with anti-HA or anti-FLAG, respectively, the results of which are shown in FIG. 5B.
According to embodiments of experimental results shown in FIG. 5A, MDA-MB-435s cells were transfected with pCMV-STAT3-Flag and pCMV-STAT3-HA plasmid and the cell lysate was immunoblotted with anti-Flag, anti-HA, or anti-STAT3. According to embodiments shown in FIG. 5B, MDA-MB-435s cells were co-transfected with pCMV-STAT3-Flag and pCMV-STAT3-HA plasmids and were exposed to 20 μM of inhibitor for 24h, then cell lysate was immunoprecipitated with anti-HA or anti-Flag antibody, respectively and immunoblotted with HA, Flag, or STAT3 antibody. As shown in Lane 1 of FIG. 5B, no transfection was performed. In lane 2, untreated cells were transfected with pCMV-STAT3-Flag and pCMV-STAT3-HA plasmids.

[8] = tested on: MDA-MB-468, MDA-MB-435s, and MDA-MB-231 cell lines; assay: Apoptosis by FACS, cell lines with constitutively active STAT3; format: cell-based; settings: 48 h
Description: (§5) According to embodiments of experimental data shown in FIG. 6A, the phosphorylation of STAT3 (Tyr705) in different cell lines: lane 1 with HSF, lane 2 with MCF-7, land 3 with MDA-MB-453, lane 4 with MDA-MB-231, lane 5 with MDA-MB-435s, and lane 6 with MDA-MB-468. According to embodiments shown in FIG. 6B, cell lines were treated with STAT3 inhibitor at concentrations as indicated for 48 h, and apoptotic cells were detected with FACS.

[9] = tested on: MCF-7 and MDA-MB-453 cancer cell lines and human skin fibroblasts (HSF); assay: Apoptosis by FACS, cells lacking constitutively active STAT3; format: cell-based; settings: 48 h, lack constitutively active STAT3
Description: as §5

JAK2 = target: T2, JAK2 (Homo sapiens, UniProt O60674); assay: Phosphorylation of JAK2; format: cell-based
T2 construct: endogenous in cells

Src = target: T3, Src (Homo sapiens, UniProt P12931); assay: Phosphorylation of Src; format: cell-based
T3 construct: endogenous in cells

AKT = assay: Phosphorylation of AKT; format: cell-based
ERK½ = assay: Phosphorylation of ERK½; format: cell-based

T3 sequence (P12931 whole entry): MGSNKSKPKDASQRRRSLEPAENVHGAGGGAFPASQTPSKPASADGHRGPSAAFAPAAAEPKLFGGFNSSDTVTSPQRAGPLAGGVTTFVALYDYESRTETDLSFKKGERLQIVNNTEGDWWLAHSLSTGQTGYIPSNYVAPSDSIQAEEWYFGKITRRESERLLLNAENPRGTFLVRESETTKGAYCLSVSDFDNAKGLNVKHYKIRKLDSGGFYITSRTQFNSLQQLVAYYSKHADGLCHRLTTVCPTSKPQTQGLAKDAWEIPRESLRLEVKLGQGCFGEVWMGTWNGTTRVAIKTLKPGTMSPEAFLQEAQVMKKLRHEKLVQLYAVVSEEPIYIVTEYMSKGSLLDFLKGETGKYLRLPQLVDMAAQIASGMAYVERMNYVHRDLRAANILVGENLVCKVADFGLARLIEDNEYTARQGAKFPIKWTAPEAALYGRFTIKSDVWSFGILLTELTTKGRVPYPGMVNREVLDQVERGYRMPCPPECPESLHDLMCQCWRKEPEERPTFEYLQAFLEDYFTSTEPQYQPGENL
T2 sequence (O60674 whole entry): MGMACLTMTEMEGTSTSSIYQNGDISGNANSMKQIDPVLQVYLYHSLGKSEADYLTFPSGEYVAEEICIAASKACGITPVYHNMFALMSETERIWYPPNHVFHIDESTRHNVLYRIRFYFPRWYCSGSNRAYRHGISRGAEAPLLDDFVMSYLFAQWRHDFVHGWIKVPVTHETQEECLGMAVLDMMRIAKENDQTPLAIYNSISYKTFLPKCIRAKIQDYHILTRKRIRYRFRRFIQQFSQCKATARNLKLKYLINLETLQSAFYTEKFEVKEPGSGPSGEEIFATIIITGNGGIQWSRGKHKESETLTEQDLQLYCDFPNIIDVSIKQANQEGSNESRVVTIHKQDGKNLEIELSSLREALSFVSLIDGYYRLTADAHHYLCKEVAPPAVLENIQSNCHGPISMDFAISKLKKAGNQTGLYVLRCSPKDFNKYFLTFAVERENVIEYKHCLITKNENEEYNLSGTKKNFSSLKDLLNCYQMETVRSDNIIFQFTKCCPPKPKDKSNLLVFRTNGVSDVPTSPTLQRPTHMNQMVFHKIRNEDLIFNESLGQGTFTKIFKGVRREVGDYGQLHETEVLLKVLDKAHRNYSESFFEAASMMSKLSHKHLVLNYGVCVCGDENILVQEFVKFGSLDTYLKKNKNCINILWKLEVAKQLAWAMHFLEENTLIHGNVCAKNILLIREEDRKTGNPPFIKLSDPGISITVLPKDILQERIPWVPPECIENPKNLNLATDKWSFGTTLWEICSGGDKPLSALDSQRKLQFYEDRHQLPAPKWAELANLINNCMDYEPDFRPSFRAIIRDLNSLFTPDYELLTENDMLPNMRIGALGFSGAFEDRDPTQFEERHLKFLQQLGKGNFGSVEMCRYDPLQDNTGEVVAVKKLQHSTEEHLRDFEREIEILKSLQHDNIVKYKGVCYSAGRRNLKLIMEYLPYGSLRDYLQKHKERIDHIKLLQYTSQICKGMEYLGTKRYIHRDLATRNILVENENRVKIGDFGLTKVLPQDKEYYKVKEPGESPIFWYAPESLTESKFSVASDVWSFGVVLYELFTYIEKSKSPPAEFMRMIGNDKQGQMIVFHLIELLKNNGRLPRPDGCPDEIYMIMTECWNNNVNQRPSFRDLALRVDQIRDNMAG

IC50 [1]: 12.2 µM
IC50 [2]: 18.7 µM
IC50 [3]: 30.1 µM
IC50 ([4]; Homo sapiens, MCF7, MTS assay, 2,000 cells/well, no constitutive STAT3 activation): > 100 µM
luciferase activity under control of the SV40 promoter (SV40 promoter): no significant difference
STAT3 DNA binding activity (STAT3 [6]): specifically blocked STAT3 DNA binding
STAT1 DNA binding (STAT1): did not inhibit
STAT5 DNA binding (STAT5): did not inhibit
phosphorylation of JAK2 (JAK2): did not inhibit
phosphorylation of Src (Src): did not inhibit
Structure (SMILES): C[C@@H]1CC(=O)c2c(ccc3c2C(=O)c2cccc(O)c2C3=O)C1 [STA-21, deoxytetrangomycin]
anti-proliferative activity in MCF-7 cells (in words) ([4]; cells with no constitutive STAT3 activation): did not show any antiproliferative activity
reduction in luciferase activity, pLucTKS3 transfected cells (STAT3 [5]): ~6 fold
expression of STAT3-regulated genes cyclin D1 and Bcl-XL (cyclin D1 and Bcl-XL): inhibits the expression
ability of STAT3-FLAG and STAT3-HA to dimerize (STAT3 [7]): significantly reduced
increase in percentage of apoptotic cells [8]: 5-30 fold
increase in percentage of apoptotic cells [9]: 0.5-1.2 fold
phosphorylation of AKT (AKT): did not inhibit
phosphorylation of ERK½ (ERK½): did not inhibit
